What was measured:
[1] = molecular target: T1, full length Keap1 protein / full length NRF2 protein (Homo sapiens, UniProt Q14145); test: NRF2-Keap1 TR-FRET Low Protein Assay; type: binding; details: 1.25 nM Keap1 FlagHis and 2.5 nM biotin-NRF2 added
T1 construct: full length NRF2 protein and full length Keap1 protein (Keap1 exists a dimer) are used; His
Outline: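 Flag-tagged full-length Keap1 was preincubated with compound (3-fold series) for 2.25 h at 37 °C in Tris pH 8.0/MgCl2/NaCl/BSA/DTT/CHAPS. Biotin-Avi-NRF2 (added at 2.5 nM) was then bound for 1.25 h at 4 °C. Eu-streptavidin/anti-Flag-APC TR-FRET (665/615 nm) was read after 1 h at RT, and pIC50 came from a four-parameter fit.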

[2] = molecular target: T1, full length Keap1 protein / full length NRF2 protein; test: NRF2-Keap1 TR-FRET Assay; type: binding; details: 25 nM Keap1-FlagHis and 50 nM biotin-NRF2 added
Outline: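 Full-length Keap1-FlagHis preincubated with compound 2.25 h at 37 °C, then biotin-NRF2 added for 1.25 h at 4 °C, in Tris pH 8.0 with MgCl2, NaCl, BSA, DTT, CHAPS. TR-FRET 665/615 nm ratio normalised to with- and without-protein 1% DMSO controls; pIC50 from four-parameter fit.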

T1 sequence (Q14145 whole entry): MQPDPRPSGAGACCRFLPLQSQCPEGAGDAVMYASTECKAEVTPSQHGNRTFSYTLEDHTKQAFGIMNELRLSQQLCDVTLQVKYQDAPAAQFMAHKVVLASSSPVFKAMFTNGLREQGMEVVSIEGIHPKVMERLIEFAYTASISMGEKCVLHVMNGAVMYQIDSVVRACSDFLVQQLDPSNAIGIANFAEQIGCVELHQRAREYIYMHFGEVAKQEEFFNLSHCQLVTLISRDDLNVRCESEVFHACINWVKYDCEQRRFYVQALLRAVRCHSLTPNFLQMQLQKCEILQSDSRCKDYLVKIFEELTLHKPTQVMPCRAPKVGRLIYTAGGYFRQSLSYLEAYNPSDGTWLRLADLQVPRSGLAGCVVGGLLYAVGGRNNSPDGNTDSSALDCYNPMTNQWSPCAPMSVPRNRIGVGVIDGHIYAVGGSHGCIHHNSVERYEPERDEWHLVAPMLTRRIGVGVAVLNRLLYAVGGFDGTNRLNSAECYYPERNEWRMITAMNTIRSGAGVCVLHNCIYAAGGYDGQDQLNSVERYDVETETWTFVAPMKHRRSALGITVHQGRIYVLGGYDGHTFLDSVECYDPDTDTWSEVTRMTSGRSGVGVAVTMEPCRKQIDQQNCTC

IC50 [1] [nM] | IC50 [2] [nM] | Compound
10 to 100 | 100 to 1000 | O=C(O)c1cnn(-c2cccc(-c3cccc(C(=O)N4CCCCC4C4CCCC4)c3F)c2)c1C1CC1 (stereo not shown) [Example 33, 1-{3-[3-(2-Cyclopentylpiperidine-1-carbonyl)-2-fluorophenyl]phenyl}-5-cyclopropyl-1H-pyrazole-4-carboxylic Acid]
10 to 100 | 100 to 1000 | O=C(O)c1cnn(-c2cccc(-c3cccc(C(=O)N4CCCC5(CCCC5)C4)c3F)c2)c1C1CC1 [Example 35, 1-[3-(3-{7-Azaspiro[4.5]decane-7-carbonyl}-2-fluorophenyl)phenyl]-5-cyclopropyl-1H-pyrazole-4-carboxylic Acid]
10 to 100 | 100 to 1000 | O=C(O)c1cnn(-c2cccc(-c3cccc(C(=O)N4CCCCC4CCC(F)(F)F)c3F)c2)c1C1CC1 (stereo not shown) [Example 38, 5-Cyclopropyl-1-(3-{2-fluoro-3-[2-(3,3,3-trifluoropropyl)piperidine-1-carbonyl]phenyl}phenyl)-1H-pyrazole-4-carboxylic Acid]
10 to 100 | 100 to 1000 | CCC[C@@H]1CO[C@@H](C)CN1C(=O)c1cccc(-c2cccc(-n3ncc(C(=O)O)c3C3CC3)c2)c1F [Example 45, 5-cyclopropyl-1-(3-{2-fluoro-3-[(2S,5R)-2-methyl-5-propylmorpholine-4-carbonyl]phenyl}phenyl)-1H-pyrazole-4-carboxylic Acid]
10 to 100 | 100 to 1000 | CC1CC(C)CN(C(=O)c2cccc(-c3cccc(-n4ncc(C(=O)O)c4C4CC4)c3)c2F)C1 (stereo not shown) [Example 53, 5-Cyclopropyl-1-[3′-(3,5-dimethyl-piperidine-1-carbonyl)-2′-fluoro-biphenyl-3-yl]-1H-pyrazole-4-carboxylic Acid]
100 to 1000 | 1000 to 10000 | CCC[C@@H]1CCCCN1C(=O)c1cccc(-c2cccc(-n3ncc(C(=O)O)c3C3CC3)c2)c1F [Example 54e, 5-Cyclopropyl-1-{3-[2-fluoro-3-((2-S)-2-propylpiperidine-1-carbonyl)phenyl]phenyl}-1H-pyrazole-4-carboxylic Acid]
10 to 100 | 10 to 100 | CCC[C@@H]1CCCCN1C(=O)c1cccc(-c2cccc(-n3ncc(C(=O)O)c3CCc3cn(C)nn3)c2)c1F [Example 55, (R)-1-(2′-Fluoro-3′-(2-propylpiperidine-1-carbonyl)-[1,1′-biphenyl]-3-yl)-5-(2-(1-methyl-1H-1,2,3-triazol-4-yl)ethyl)-1H-pyrazole-4-carboxylic Acid]
100 to 1000 | 100 to 1000 | CC(C)Oc1cccc(-c2cccc(-n3ncc(C(=O)O)c3C3CC3c3cn(C)nn3)c2)c1 (stereo not shown) [Example 59, 1-(3′-Isopropoxy-[1,1′-biphenyl]-3-yl)-5-(2-(1-methyl-1H-1,2,3-triazol-4-yl)cyclopropyl)-1H-pyrazole-4-carboxylic Acid]
10 to 100 | 100 to 1000 | CC1(C)CCc2cnn(-c3cccc(-c4cccc(-n5ncc(C(=O)O)c5C5CC5)c4)c3)c21 [Example 63, 5-Cyclopropyl-1-(3′-(6,6-dimethyl-5,6-dihydrocyclopenta[c]pyrazol-1(4H)-yl)-[1,1′-biphenyl]-3-yl)-1H-pyrazole-4-carboxylic Acid]
100 to 1000 | 10000 to 100000 | CC1(C)CCc2cnn(-c3cccc(-c4cccc(-n5ncc(C(=O)O)c5C(F)(F)F)c4)c3)c21 [Example 250, 1-(3′-(6,6-Dimethyl-5,6-dihydrocyclopenta[c]pyrazol-1(4H)-yl)-[1,1′-biphenyl]-3-yl)-5-(trifluoromethyl)-1H-pyrazole-4-carboxylic Acid]
< 10 | 100 to 1000 | C[C@@H]1CN(Cc2cccc(-c3cccc(-n4ncc(C(=O)O)c4[C@@H]4C[C@H]4c4cn(C)nn4)c3)c2)Cc2ccccc2O1 [Example 253]
< 10 | 10 to 100 | CCOC[C@@H]1CCCN1C(=O)c1cccc(-c2cccc(-n3ncc(C(=O)O)c3[C@@H]3C[C@H]3c3cn(C)nn3)c2)c1F [Example 267]
< 10 | 10 to 100 | CCOC[C@H]1CCCN1C(=O)c1cccc(-c2cccc(-n3ncc(C(=O)O)c3[C@@H]3C[C@H]3c3cn(C)nn3)c2)c1F [Example 268]

Compound | IC50 [1] [nM] | IC50 [2] [nM]
O=C(O)c1cnn(-c2cccc(-c3cccc(C(=O)N4C5CCCC4CCC5)c3F)c2)c1C1CC1 [Example 34, 1-[3-(3-{9-azabicyclo[3.3.1]nonane-9-carbonyl}-2-fluorophenyl)phenyl]-5-cyclopropyl-1H-pyrazole-4-carboxylic Acid] | 10 to 100 | 100 to 1000

From patent publication US10364256B2 (GlaxoSmithKline Intellectual Property Development Limited, priority 2015, dated 2019)
